Publication PMC8067754, “Active Transport of Hepatotoxic Pyrrolizidine Alkaloids in HepaRG Cells” (International Journal of Molecular Sciences, 2021)

How the values were obtained:
[1] = tested on: HepaRG cells; experiment: PA and PANO content in cell culture medium of HepaRG cells upon pharmacological transporter inhibition (LC-MS/MS); type: in vitro ADME, human; conditions: HepaRG, 2.5 µM PA, 4, 8, 24 h; CsA 10 µM, Ko143 5 µM, MK-571 50 µM, Qu 100 µM, TEA 3 mM
Method: (§1) In the case of TEA, cells were pre-incubated 24 h prior to PA treatment. The inhibitors were applied anew at PA incubation.
In order to measure time-dependent depletion of PA and PANO content in cell culture medium, cells were seeded at a density of 0.2 × 10^6 cells per well in a 6-well plate and cultivated as described in Section 4.2. After four weeks of cultivation, cells were adapted to serum-free medium and medium substituted with insulin, transferrin, selenium (ITS) serum extender (Capricorn Scientific, Ebsdorfergrund, Germany) 48 h prior to PA incubation for optimal LC-MS/MS measurements. […] Samples were taken after 2 h, 4 h, 8 h and 24 h.
Briefly, chromatographic separation of PA/PANO analytes was achieved on a 50 × 2.1 mm Kinetex ™ 2.6 μm CoreShell EVO C18 100 Å column protected by a SecurityGuard ™ ULTRA EVO C 18 2.1 mm guard column (both Phenomenex, Aschaffenburg, Germany) at a flow rate of 0.4 mL/min on a Shimadzu high performance liquid chromatography (HPLC) apparatus (LC-20AB, SIL-20AC HT, CTO-20AC, CBM-20A, Duisburg, Germany) coupled to an API4000 triple quadrupole MS (Sciex, Darmstadt, Germany). The following MS parameters were used for measurements in positive electrospray ionisation (ESI+) mode: ionisation voltage 2500 V, nebuliser gas 50 psi, heating gas 50 psi, curtain gas 30 psi, temperature 600 °C, collision gas level 7. The substance specific parameters are summarized in Kaltner et al. 2019 [79].

[2] = tested on: HepaRG cells; experiment: Cell viability (MTT assay) of HepaRG cells with and without transporter inhibitors; type: cell-based, human; conditions: HepaRG
Method: as §1
(§2) To analyze the cytotoxic effects of PAs on HepaRG cells with non-inhibited and inhibited hepatic transporters, the cells were seeded at a density of 9000 cells per well in the inner 60 wells of a 96-well plate and cultivated as described in Section 4.2. After four weeks of cultivation, FBS concentration in the cell culture medium was reduced to 2% for 48 h prior incubation. Thereby, inhibitory effects of peptide growth factors from the FBS on xenobiotic-metabolizing enzymes were minimized. […] The cells were pre-incubated with pharmacological inhibitors as described in Section 4.3. […] Cell viability was analyzed via the MTT test. 10 µl MTT reagent (5 mg/mL MTT dissolved in phosphate-buffered saline, PBS) was added per well and incubated for 1 h at 37 °C. The supernatant was discarded, and the violet formazan crystals dissolved in 130 µL desorption solution (0.7% sodium dodecyl sulfate in propan-2-ol). After shaking for 20 min (under protection from light), absorbance was measured on a TecanM200Pro spectrometer (Tecan Group Ltd., Männedorf, Switzerland) at a wavelength of 570 nm, along with a reference wavelength of 630 nm.

[3] = as above; type: cell-based, human; conditions: human, HepaRG cells, HepaRG, no PA, inhibitor alone 24 h: CsA 10 µM, Ko143 5 µM, MK571 50 µM, Qu 100 µM, TEA 3 mM; read-out: Cell viability (MTT), percent of solvent control, Mean [%]
Method: as §1, §2

[4] = molecular target: T1, SLC22A1 (Homo sapiens, UniProt O15245); experiment: ASP+ (SLC22A1 substrate) uptake measurement in HepaRG cells; type: cell-based; conditions: for fluorescence [%], MW [%]: solv ctrl = 100; for reduction of ASP+ (SLC22A1 substrate) uptake: Qu 100 µM, TEA 3 mM, 1 µM ASP+
T1 construct: For measuring the uptake of ASP^+ in HepaRG cells incubated with PAs; endogenous in cells; host or cells: differentiated HepaRG cells (human hepatoma)
T1 sequence (O15245 1-554): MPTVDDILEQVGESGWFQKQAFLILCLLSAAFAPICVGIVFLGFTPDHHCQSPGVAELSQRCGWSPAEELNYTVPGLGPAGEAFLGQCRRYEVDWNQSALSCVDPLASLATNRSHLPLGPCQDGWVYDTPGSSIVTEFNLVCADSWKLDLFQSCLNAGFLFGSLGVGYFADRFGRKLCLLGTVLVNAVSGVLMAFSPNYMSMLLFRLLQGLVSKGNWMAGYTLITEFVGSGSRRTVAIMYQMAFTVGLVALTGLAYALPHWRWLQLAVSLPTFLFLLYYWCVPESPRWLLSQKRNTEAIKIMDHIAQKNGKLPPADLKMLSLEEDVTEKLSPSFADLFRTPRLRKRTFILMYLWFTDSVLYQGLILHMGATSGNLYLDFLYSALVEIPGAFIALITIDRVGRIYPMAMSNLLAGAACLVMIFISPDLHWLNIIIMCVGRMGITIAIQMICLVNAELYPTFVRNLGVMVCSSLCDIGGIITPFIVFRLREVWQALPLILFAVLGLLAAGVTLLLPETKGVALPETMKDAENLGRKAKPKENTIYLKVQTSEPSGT
Method: ASP^+ is an organic cationic mitochondrial dye that only fluoresces inside cells so that fluorescence measured in the cell culture medium can be neglected. […] In parallel, cells were incubated with Qu (100 µM) and TEA (3 mM) as mentioned in Section 4.3. After 24 h, cells were incubated with 1 µM ASP^+ in Hanks’ balanced salt solution (HBSS, Sigma-Aldrich, Taufkirchen, Germany) at 37 °C. Fluorescence was measured after 20 min at ASP^+-specific wavelength (λex = 475 nm and λem = 605 nm) on a TecanM200Pro spectrometer (Tecan Group Ltd., Männedorf, Switzerland) according to Ahlin et al., (2008).

Row | Compound | effect of inhibitor on retrorsine and senecionine uptake and PANO formation [1] | viability at 24 h [3] [%] | reduction of ASP+ (SLC22A1 substrate) uptake ([4]; HepaRG, 24 h) | fluorescence [%], MW [%] ([4]; 100 µM) | further results
1 | COc1ccc2c3c([nH]c2c1)[C@H](CC(C)C)N1C(=O)[C@H](CCC(=O)OC(C)(C)C)NC(=O)[C@@H]1C3 [Ko143, reference compound] | did not alter retrorsine and senecionine uptake and PANO formation | – | – | – | effect of inhibitor on PA-mediated cytotoxicity ([2]; 250 µM retrorsine or senecionine, MTT, 24 h, versus 250 µM PA only): did not alter the cytotoxic effects of retrorsine and senecionine; Cell viability (MTT), percent of solvent control, Mean [%] ([2]; no PA, inhibitor alone 24 h: CsA 10 µM, Ko143 5 µM, MK571 50 µM, Qu 100 µM, TEA 3 mM): 98.3595%
2 | CC[N+](CC)(CC)CC [TEA, tetraethylammonium bromide] | significantly reduced retrorsine uptake only after 8 and 24 h and senecionine uptake only after 8 h | 84.5 | up to 64% | – | fluorescence [%], MW [%] ([4]; 3mM): 36.1156%
3 | CN(C)C(=O)CCSC(SCCC(=O)O)c1cccc(/C=C/c2ccc3ccc(Cl)cc3n2)c1 (stereo not drawn) [MK-571, reference compound] | decelerated retrorsine and senecionine uptake and PANO excretion, but to a lesser extent than CsA | 106 | – | – | –
4 | Triton X-100 [reference compound] | – | – | – | – | Cell viability (MTT), percent of solvent control ([2]; 0.01% Triton X-100 positive control, listed as pos ctrl): 2.774%
5 | C=C[C@H]1C[N@@]2CC[C@H]1C[C@@H]2[C@@H](O)c1ccnc2ccc(OC)cc12 [Qu, quinidine] | striking effect on both retrorsine and senecionine uptake at all time points | 87.2 | 18% | 82.7588 | –
6 | retrorsine | – | – | – | 25.133 | fluorescence [%], MW [%] ([4]; 1 µM): 89.2606%; fluorescence [%], MW [%] ([4]; 10 µM): 46.6068%; fluorescence [%], MW [%] ([4]; 50 µM): 25.7608%; fluorescence [%], MW [%] ([4]; 250 µM): 21.5057%; interaction with SLC22A1 ([4]; HepaRG): both inhibitors and substrates; minimum concentration inhibiting uptake of the SLC22A1-specific substrate ASP+ ([4]; HepaRG, 24 h): 10 µM
